Experimental findings from patent publication US20110046210A1, “SUBSTITUTED THIOPENECARBOXAMIDES AS IKK-BETA SERINE-, THREONINE-PROTEIN KINASE INHIBITORS” (CHROMA THERAPEUTICS LTD., priority 2008, published 2011) are described below.

pIC50: −log10 of the molar value. Like-named read-outs stand apart in the source and are kept apart here.

The target in one experiment is T1, IKBKB (IKK-β) (Homo sapiens, UniProt O14920).
T1 construct: purchased Invitrogen (Paisley, UK)
T1 sequence (O14920 1-756): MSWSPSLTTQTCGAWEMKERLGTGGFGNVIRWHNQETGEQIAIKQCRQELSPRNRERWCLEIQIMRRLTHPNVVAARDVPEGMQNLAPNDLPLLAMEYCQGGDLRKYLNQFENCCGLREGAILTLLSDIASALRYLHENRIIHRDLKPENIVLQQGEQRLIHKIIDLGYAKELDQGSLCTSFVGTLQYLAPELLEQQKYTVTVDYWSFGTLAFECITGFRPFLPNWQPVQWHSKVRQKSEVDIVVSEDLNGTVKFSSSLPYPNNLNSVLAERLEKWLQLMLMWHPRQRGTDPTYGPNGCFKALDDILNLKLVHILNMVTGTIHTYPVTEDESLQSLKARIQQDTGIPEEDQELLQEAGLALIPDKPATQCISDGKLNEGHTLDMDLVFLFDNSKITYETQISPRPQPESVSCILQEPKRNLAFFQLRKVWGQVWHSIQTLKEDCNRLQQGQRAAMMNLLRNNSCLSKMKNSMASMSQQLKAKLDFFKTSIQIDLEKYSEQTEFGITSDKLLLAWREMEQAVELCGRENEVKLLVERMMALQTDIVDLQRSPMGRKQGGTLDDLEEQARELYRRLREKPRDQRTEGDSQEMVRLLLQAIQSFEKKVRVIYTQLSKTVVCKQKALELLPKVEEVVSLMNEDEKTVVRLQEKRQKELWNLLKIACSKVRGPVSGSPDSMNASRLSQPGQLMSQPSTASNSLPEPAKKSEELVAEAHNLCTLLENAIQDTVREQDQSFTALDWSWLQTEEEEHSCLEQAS
The experiment in a line: IKKβ enzyme assay (Z'-LYTE, Invitrogen). It counts as biochemical. The conditions noted are these: for IC50: read-out: Enzyme IC50 (nM) vs IKKβ; for pIC50: ATP at or close to Km, IC50 range, read-out: Inhibitor activity versus IKKβ. The protocol:
The ability of compounds to inhibit IKK-β kinase activity was measured in an assay performed by Invitrogen (Paisley, UK). The Z′-LYTE™ biochemical assay employs a fluorescence-based, coupled-enzyme format and is based on the differential sensitivity of phosphorylated and non-phosphorylated peptides to proteolytic cleavage. The peptide substrate is labelled with two fluorophores—one at each end—that make up a FRET pair. In the primary reaction, the kinase transfers the gamma-phosphate of ATP to a single serine or threonine residue in a synthetic FRET-peptide. In the secondary reaction, a site-specific protease recognizes and cleaves non-phosphorylated FRET-peptides. Phosphorylation of FRET-peptides suppresses cleavage by the Development Reagent. Cleavage disrupts FRET between the donor (i.e. coumarin) and acceptor (i.e. fluorescein) fluorophores on the FRET-peptide, whereas uncleaved, phosphorylated FRET-peptides maintain FRET. A […] method, which calculates the ratio (the Emission Ratio) of donor emission to acceptor emission after excitation of the donor fluorophore at 400 nm, is used to quantitate reaction progress.
The final 10 μL Kinase Reaction consists of 0.9-8.0 ng IKBKB (IKK-β), 2 μM Ser/Thr 05 Peptide and ATP in 50 mM HEPES pH 7.5, 0.01% BRIJ-35, 10 mM MgCl2, 1 mM EGTA. The assay is performed at an ATP concentration at, or close to the Km. After the 60 minute Kinase Reaction incubation at room temperature, 5 μL of a 1:128 dilution of Development Reagent is added. The assay plate is incubated for a further 60 minutes at room temperature and read on a fluorescence plate reader.
Duplicate data points are generated from a ⅓ log dilution series of a stock solution of test compound in DMSO. Nine dilutions steps are made from a top concentration of 10 μM, and a ‘no compound’ blank is included. Data is collected and analysed using XLfit software from IDBS. The dose response curve is curve fitted to model number 205 (sigmoidal dose-response model). From the curve generated, the concentration giving 50% inhibition is determined and reported.

In another experiment the test system is human whole blood. The experiment in a line: LPS-stimulation of human whole blood, TNF-α release. The format is cell-based. The protocol: Whole blood was taken by venous puncture using heparinised vacutainers (Becton Dickinson) and diluted in an equal volume of RPMI1640 tissue culture media (Sigma). 100 μl was plated in V-bottomed 96 well tissue culture treated plates. 2 hours after the addition of the inhibitor in 100 μl of RPMI1640 media, the blood was stimulated with LPS (E coli strain 005:B5, Sigma) at a final concentration of 100 ng/ml and incubated at 37° C. in 5% CO2 for 6 hours. TNF-α levels were measured from cell-free supernatants by sandwich ELISA (R&D Systems #QTA00B). Human heparinised blood (17-IU/ml) was diluted with an equal volume of RPMI-1640 and then sub-aliquoted into 96 well microtitre wells (100 µl/well). Inhibitors of IKKβ that had been serially diluted in RPMI-1640 were added to the wells (100 µl/well) to give a range of final concentrations (5-10000 nM). After incubation for 2 hours at 37° C., TNF[…] production was stimulated for 6 hours at 37° C. by the addition of 10 µl of LPS (E Coli 055:B5) to give a final concentration of 100 ng/ml. Plates were then centrifuged for 3 minutes at 800 g and TNF[…] present in the supernatant then measured, using a QuantiGlo Chemiluminescent ELISA (R&D Systems). The human whole blood assay measures the ability of the compounds to inhibit the LPS stimulated production of TNF alpha in human blood cells mediated by IKKβ in a physiologically relevant setting.

Another experiment has as its system THP-1 cells. As to the kind of experiment: LPS-stimulation of THP-1 cells, TNF-α release. The format is cell-based. The following applies: Homo sapiens, LPS 1 μg/ml, 6 hours, IC50 range, read-out: Inhibitor activity versus THP-1 TNFα release. The method, then:
THP-1 cells were plated in 100 μl at a density of 4×10^4 cells/well in V-bottomed 96 well tissue culture treated plates and incubated at 37° C. in 5% CO2 for 16 hours. 2 hours after the addition of the inhibitor in 100 μl of tissue culture media, the cells were stimulated with LPS (E coli strain 005:B5, Sigma) at a final concentration of 1 μg/ml and incubated at 37° C. in 5% CO2 for 6 hours. TNF-α levels were measured from cell-free supernatants by sandwich ELISA (R&D Systems #QTA00B).

The mark [1] stands for this setting: LPS stimulated TNF alpha production, read-out: IC50 in Human whole blood.
The mark [2] stands for this setting: LPS 100 ng/ml, 6 hours, IC50 range, read-out: Inhibitor activity versus human whole blood TNFα release.

As usually defined, the IC50 is the concentration that inhibits the measured activity by half. In the case of `NC(=O)Nc1sc(-c2ccccc2)cc1C(N)=O` [Compound I, reference compound], the IC50 on IKBKB (IKK-β) is 5 nM. The pIC50 in the experiment with human whole blood (setting [1]) is 6.31.
Take `CC(C)(NCc1cccc(-c2cc(C(N)=O)c(NC(N)=O)s2)c1)C(=O)OC1CCCC1` [Example 1, Cyclopentyl N-{3-[4-carbamoyl-5-(carbamoylamino)-2-thienyl]benzyl}-2-methylalaninate]: the pIC50 at IKBKB (IKK-β) is above 6.30; with THP-1 cells it was above 6.30; in the experiment with human whole blood (setting [2]), above 6.30; in the experiment on human whole blood (setting [1]) it was 6.85. Further, the 50% inhibitory concentration (IC50) at IKBKB (IKK-β) is 132 nM.
As for `CC(C)(C)OC(=O)C(C)(C)NCc1cccc(-c2cc(C(N)=O)c(NC(N)=O)s2)c1` [Example 2, tert-Butyl N-{3-[4-carbamoyl-5-(carbamoylamino)-2-thienyl]benzyl}-2-methylalaninate], the figures for the pIC50 at IKBKB (IKK-β), in the experiment on THP-1 cells and in the experiment with human whole blood (setting [2]) were above 6.30, above 6.30 and below 6.00, respectively.
Regarding `CC(C)(NC(=O)c1cccc(-c2cc(C(N)=O)c(NC(N)=O)s2)c1)C(=O)OC1CCCC1` [Example 3, Cyclopentyl N-{3-[4-carbamoyl-5-(carbamoylamino)-2-thienyl]benzoyl}-2-methylalaninate], the pIC50 at IKBKB (IKK-β) was above 6.30; with THP-1 cells it was below 6.00; in the experiment with human whole blood (setting [2]), below 6.00.
As to `CCC(CC)(NCc1cccc(-c2cc(C(N)=O)c(NC(N)=O)s2)c1)C(=O)OC1CCCC1` [Example 4, Cyclopentyl 2-({3-[4-carbamoyl-5-(carbamoylamino)-2-thienyl]benzyl}amino)-2-ethylbutanoate], the pIC50 at IKBKB (IKK-β) was below 6.00; in the experiment on THP-1 cells, above 6.30; in the experiment with human whole blood (setting [2]), below 6.00.
Turning to `CC(C)(NCc1ccc(-c2cc(C(N)=O)c(NC(N)=O)s2)cc1)C(=O)OC1CCCC1` [Example 5, Cyclopentyl N-{4-[4-carbamoyl-5-(carbamoylamino)-2-thienyl]benzyl}-2-methylalaninate], the pIC50 at IKBKB (IKK-β) is above 6.30; in the experiment with THP-1 cells, below 6.00; in the experiment on human whole blood (setting [2]) it was 6.00 to 6.30.
Taken in the same sequence, the figures for `CC(C)(NCCc1cccc(-c2cc(C(N)=O)c(NC(N)=O)s2)c1)C(=O)OC1CCCC1` [Example 6, Cyclopentyl N-(2-{3-[4-carbamoyl-5-(carbamoylamino)-2-thienyl]phenyl}ethyl)-2-methylalaninate] were 6.00 to 6.30, 6.00 to 6.30 and above 6.30.
Taken in the same sequence, the figures for `CC(C)(NCc1ccc2cc(-c3cc(C(N)=O)c(NC(N)=O)s3)ccc2c1)C(=O)OC1CCCC1` [Example 7, Cyclopentyl N-({6-[4-carbamoyl-5-(carbamoylamino)-2-thienyl]-2-naphthyl}methyl)-2-methylalaninate] were below 6.00, above 6.30 and below 6.00.
For `CC(C)(NCc1cccc(-c2cc(C(N)=O)c(NC(N)=O)s2)c1)C(=O)O` [Example 8, N-{3-[4-Carbamoyl-5-(carbamoylamino)-2-thienyl]benzyl}-2-methylalanine], on IKBKB (IKK-β), the pIC50 was above 6.30.
Same read-out and setting: with `CC(C)(NC(=O)c1cccc(-c2cc(C(N)=O)c(NC(N)=O)s2)c1)C(=O)O` [Example 9, N-{3-[4-Carbamoyl-5-(carbamoylamino)-2-thienyl]benzoyl}-2-methylalanine] the figure was above 6.30.
For the compound `CC(C)(NCCc1cccc(-c2cc(C(N)=O)c(NC(N)=O)s2)c1)C(=O)O` [Example 10, N-(2-{3-[4-carbamoyl-5-(carbamoylamino)-2-thienyl]phenyl}ethyl)-2-methylalanine], the pIC50 at IKBKB (IKK-β) was above 6.30.
Same read-out and setting: next, `CC(C)(NCc1ccc2cc(-c3cc(C(N)=O)c(NC(N)=O)s3)ccc2c1)C(=O)O` [Example 11, N-({6-[4-carbamoyl-5-(carbamoylamino)-2-thienyl]-2-naphthyl}methyl)-2-methylalanine]: above 6.30.
